Drawing on PubChem BioAssay AID272 (DTP/NCI, 2004), this text covers T/C for 17 compounds.

Values joined by “and” are separate entries in the source; they are usually repeats but may differ in a detail not shown here. Equal values may be shown once. Records with an inconclusive call do not appear.

The test relates to Lewis lung carcinoma i.m., BDF1 mice, T/C %. Kind of test: NCI In Vivo Anticancer Drug Screen. Data for tumor model Lewis Lung Carcinoma (intramuscular) in B6D2F1 (BDF1) mice. As to the method: The antitumor activity of compounds was measured in mice bearing transplantable tumors. Survival or tumor size were measured and the results are expressed as the measurement made in the treated group (T) divided by the measurement made in the vehicle treated control group (C). The tumor model used in this assay is Lewis Lung Carcinoma (intramuscular) in B6D2F1 (BDF1) mice

The mark [1] stands for this setting: endpoint: mean tumor weight, dose: 12.5 mg/kg/injection, schedule: Q01DX011 (ip), vehicle: saline, higher = larger tumour.
The mark [2] stands for this setting: endpoint: mean tumor weight, dose: 25.0 mg/kg/injection, schedule: Q01DX011 (ip), vehicle: saline, higher = larger tumour.
Setting [3] is: endpoint: median survival time, dose: 12.5 mg/kg/injection, schedule: Q01DX011 (ip), vehicle: saline, higher = longer survival.
Setting [4] is: endpoint: median survival time, dose: 25.0 mg/kg/injection, schedule: Q01DX011 (ip), vehicle: saline, higher = longer survival.
[5] abbreviates: endpoint: mean tumor weight (est.), dose: 25.0 mg/kg/injection, schedule: Q01DX011 (ip), vehicle: saline, higher = larger tumour.
The mark [6] stands for this setting: endpoint: mean tumor weight (est.), dose: 12.5 mg/kg/injection, schedule: Q01DX011 (ip), vehicle: saline with Tween-80, higher = larger tumour.
Setting [7] is: endpoint: median survival time, dose: 12.5 mg/kg/injection, schedule: Q01DX011 (ip), vehicle: saline with Tween-80, higher = longer survival.

On to `CC1([CH2][Hg][I])CS(=O)(=O)CC(C)([CH2][Hg][I])O1` (stereo unspecified), for which the T/C was 82 % of control (endpoint: mean tumor weight (est.), dose: 2.5 mg/kg/injection, schedule: Q01DX011 (ip), vehicle: saline with Tween-80, higher = larger tumour); 89 % of control (endpoint: mean tumor weight (est.), dose: 5.0 mg/kg/injection, schedule: Q01DX011 (ip), vehicle: saline with Tween-80, higher = larger tumour); 49 % of control (endpoint: mean tumor weight (est.), dose: 10.0 mg/kg/injection, schedule: Q01DX011 (ip), vehicle: saline with Tween-80, higher = larger tumour); 47 % of control (endpoint: mean tumor weight (est.), dose: 20.0 mg/kg/injection, schedule: Q01DX011 (ip), vehicle: saline with Tween-80, higher = larger tumour); 94 % of control (endpoint: median survival time, dose: 2.5 mg/kg/injection, schedule: Q01DX011 (ip), vehicle: saline with Tween-80, higher = longer survival); 98 % of control (endpoint: median survival time, dose: 5.0 mg/kg/injection, schedule: Q01DX011 (ip), vehicle: saline with Tween-80, higher = longer survival). In addition, the T/C is 112 % of control (endpoint: median survival time, dose: 10.0 mg/kg/injection, schedule: Q01DX011 (ip), vehicle: saline with Tween-80, higher = longer survival) and 100 % of control (endpoint: median survival time, dose: 20.0 mg/kg/injection, schedule: Q01DX011 (ip), vehicle: saline with Tween-80, higher = longer survival).

Turning to `O=NN(CCCl)C(=O)Nc1ccc(CCCl)cc1`, the T/C by setting is: (endpoint: median survival time, dose: 3.0 mg/kg/injection, schedule: Q07DX003 (ip), vehicle: Klucel (hydroxypropylcellulose) (HPC), higher = longer survival) 110 % of control; (endpoint: median survival time, dose: 5.0 mg/kg/injection, schedule: Q07DX003 (ip), vehicle: Klucel (hydroxypropylcellulose) (HPC), higher = longer survival) 116 % of control; (endpoint: median survival time, dose: 8.4 mg/kg/injection, schedule: Q07DX003 (ip), vehicle: Klucel (hydroxypropylcellulose) (HPC), higher = longer survival) 108 % of control; (endpoint: median survival time, dose: 14.0 mg/kg/injection, schedule: Q07DX003 (ip), vehicle: Klucel (hydroxypropylcellulose) (HPC), higher = longer survival) 116 % of control; (endpoint: median survival time, dose: 23.0 mg/kg/injection, schedule: Q07DX003 (ip), vehicle: Klucel (hydroxypropylcellulose) (HPC), higher = longer survival) 95 % of control.

On to `C[C@]12CC[C@H](OC3OC(CO)C(O)C(O)C3O)C[C@H]1CC[C@@H]1[C@@H]2CC[C@]2(C)[C@@H](C3=CCOC3=O)CC[C@]12O` (stereo partly specified), for which, where the note is “endpoint: median survival time, dose: 0.25 mg/kg/injection, schedule: Q01DX011 (ip), vehicle: saline, higher = longer survival”, the T/C is 110 % of control.

On to `FC(F)(F)c1nc2nc(Cl)c(Cl)nc2[nH]1`, for which the T/C reads like this: (endpoint: median survival time, dose: 8.0 mg/kg/injection, schedule: Q01DX011 (ip), vehicle: saline, higher = longer survival) 107 % of control; (endpoint: median survival time, dose: 16.0 mg/kg/injection, schedule: Q01DX011 (ip), vehicle: saline, higher = longer survival) 112 % of control; (endpoint: median survival time, dose: 32.0 mg/kg/injection, schedule: Q01DX011 (ip), vehicle: saline, higher = longer survival) 116 % of control.

Turning to `c1ccc(-c2csc3c4ccccc4c4ccccc4[n+]23)cc1`, the T/C runs as follows: (endpoint: mean tumor weight (est.), dose: 0.5 mg/kg/injection, schedule: Q01DX011 (ip), vehicle: saline with Tween-80, higher = larger tumour) 102 % of control; (endpoint: mean tumor weight (est.), dose: 2.0 mg/kg/injection, schedule: Q01DX011 (ip), vehicle: saline with Tween-80, higher = larger tumour) 61 % of control; (endpoint: median survival time, dose: 0.5 mg/kg/injection, schedule: Q01DX011 (ip), vehicle: saline with Tween-80, higher = longer survival) 89 % of control; (endpoint: median survival time, dose: 2.0 mg/kg/injection, schedule: Q01DX011 (ip), vehicle: saline with Tween-80, higher = longer survival) 93 % of control.

As for `Cc1nc(N)nc(N)c1-c1ccc(Cl)c(Cl)c1`, the T/C runs as follows: (endpoint: mean tumor weight, dose: 6.0 mg/kg/injection, schedule: Q04DX004 (ip), vehicle: saline, higher = larger tumour) 180 % of control; (endpoint: median survival time, dose: 4.0 mg/kg/injection, schedule: Q04DX004 (ip), vehicle: saline, higher = longer survival) 100 % of control; (endpoint: median survival time, dose: 8.0 mg/kg/injection, schedule: Q04DX004 (ip), vehicle: saline, higher = longer survival) 116 % of control.

As to `N=C(N)SCc1c2ccccc2c(CSC(=N)N)c2ccccc12`, the T/C is 94 % of control under setting [1]; 84 % of control under setting [2]; 52 % of control (endpoint: mean tumor weight, dose: 50.0 mg/kg/injection, schedule: Q01DX011 (ip), vehicle: saline, higher = larger tumour); 110 % of control under setting [3]; 104 % of control under setting [4].

For `Oc1c(Cl)cc(Cl)c2cccnc12`, the T/C by setting is: (endpoint: mean tumor weight, dose: 6.25 mg/kg/injection, schedule: Q01DX011 (ip), vehicle: saline with Tween-80, higher = larger tumour) 60 % of control; (endpoint: mean tumor weight, dose: 12.5 mg/kg/injection, schedule: Q01DX011 (ip), vehicle: saline with Tween-80, higher = larger tumour) 19 % of control; (endpoint: median survival time, dose: 6.25 mg/kg/injection, schedule: Q01DX011 (ip), vehicle: saline with Tween-80, higher = longer survival) 122 % of control.

Regarding `CC(=O)NC(CS)C(=O)O` (stereo unspecified), the T/C runs as follows: (endpoint: mean tumor weight (est.), dose: 750.0 mg/kg/injection, schedule: Q01DX009 (ip), vehicle: saline, higher = larger tumour) 91 % of control; (endpoint: mean tumor weight (est.), dose: 1500.0 mg/kg/injection, schedule: Q01DX009 (ip), vehicle: saline, higher = larger tumour) 86 % of control.

With `OCC1OC(n2cnc3c(=S)nc[nH]c32)C(O)C1O` (stereo unspecified), the T/C reads like this: (endpoint: mean tumor weight (est.), dose: 1.56 mg/kg/injection, schedule: Q01DX011 (ip), vehicle: other, higher = larger tumour) 100 % of control; (endpoint: mean tumor weight (est.), dose: 3.12 mg/kg/injection, schedule: Q01DX011 (ip), vehicle: other, higher = larger tumour) 78 % of control; (endpoint: mean tumor weight (est.), dose: 25.0 mg/kg/injection, schedule: Q01DX011 (ip), vehicle: other, higher = larger tumour) 96 % of control; (endpoint: median survival time, dose: 0.78 mg/kg/injection, schedule: Q01DX011 (ip), vehicle: other, higher = longer survival) 108 % of control; (endpoint: median survival time, dose: 1.56 mg/kg/injection, schedule: Q01DX011 (ip), vehicle: other, higher = longer survival) 114 % of control and 120 % of control; (endpoint: median survival time, dose: 3.12 mg/kg/injection, schedule: Q01DX011 (ip), vehicle: other, higher = longer survival) 95 % of control. For the same compound, the T/C (endpoint: median survival time, dose: 6.25 mg/kg/injection, schedule: Q01DX011 (ip), vehicle: other, higher = longer survival) was 110 % of control and the T/C (endpoint: median survival time, dose: 12.5 mg/kg/injection, schedule: Q01DX011 (ip), vehicle: other, higher = longer survival) is 112 % of control.

In the case of `CSc1nc(N)cc(NC(=O)CCl)n1`, the T/C is, setting by setting: under setting [5], 92 % of control; (endpoint: mean tumor weight (est.), dose: 50.0 mg/kg/injection, schedule: Q01DX011 (ip), vehicle: saline, higher = larger tumour) 69 % of control; (endpoint: mean tumor weight (est.), dose: 100.0 mg/kg/injection, schedule: Q01DX011 (ip), vehicle: saline, higher = larger tumour) 35 % of control.

`CCCCCCCCCCCCCCCC(=O)N(C/C=C/CN(CCCN(C)C)C(=O)CCCCCCCCCCCCCCC)CCCN(C)C`: the T/C under setting [6] was 44 % of control and the T/C under setting [7] is 92 % of control.

On to `OC1CCCC2CCC[N-]C12.OC1CCCC2CCC[N-]C12.[O]=[V][OH]` (stereo unspecified), for which the T/C by setting is: (endpoint: mean tumor weight (est.), dose: 6.25 mg/kg/injection, schedule: Q01DX011 (ip), vehicle: saline, higher = larger tumour) 86 % of control; (endpoint: mean tumor weight (est.), dose: 12.5 mg/kg/injection, schedule: Q01DX011 (ip), vehicle: saline, higher = larger tumour) 70 % of control; under setting [5], 50 % of control; (endpoint: median survival time, dose: 6.25 mg/kg/injection, schedule: Q01DX011 (ip), vehicle: saline, higher = longer survival) 101 % of control; under setting [3], 107 % of control; under setting [4], 107 % of control.

Consider `CC1(C)N=C(N)N=C(N)N1c1ccc(CCc2ccccc2)cc1`, for which the T/C runs as follows: under setting [1], 84 % of control; under setting [2], 46 % of control; under setting [3], 104 % of control; under setting [4], 89 % of control.

With `CCCCn1cnc2c(N)ncnc21`, the T/C under setting [6] is 81 % of control; the T/C (endpoint: mean tumor weight (est.), dose: 25.0 mg/kg/injection, schedule: Q01DX011 (ip), vehicle: saline with Tween-80, higher = larger tumour) was 95 % of control; the T/C (endpoint: mean tumor weight (est.), dose: 50.0 mg/kg/injection, schedule: Q01DX011 (ip), vehicle: saline with Tween-80, higher = larger tumour) is 77 % of control; the T/C under setting [7] is 93 % of control; the T/C (endpoint: median survival time, dose: 25.0 mg/kg/injection, schedule: Q01DX011 (ip), vehicle: saline with Tween-80, higher = longer survival) was 97 % of control; the T/C (endpoint: median survival time, dose: 50.0 mg/kg/injection, schedule: Q01DX011 (ip), vehicle: saline with Tween-80, higher = longer survival) is 87 % of control.

Regarding `O=C1NC(O)CCN1C1OC(CO)C(O)C1O` (stereo unspecified), the T/C was 89 % of control (endpoint: median survival time, dose: 25.0 mg/kg/injection, schedule: Q01DX011 (ip), vehicle: water, higher = longer survival); 93 % of control (endpoint: median survival time, dose: 50.0 mg/kg/injection, schedule: Q01DX011 (ip), vehicle: water, higher = longer survival); 116 % of control (endpoint: median survival time, dose: 400.0 mg/kg/injection, schedule: Q01DX011 (ip), vehicle: water, higher = longer survival).

Turning to `CC(=O)OC1CC(OC2C(O)CC(OC3C(O)CC(OC4CCC5(C)C(CCC6C5CCC5(C)C(C7=CC(=O)OC7)C(O)CC65O)C4)OC3C)OC2C)OC(C)C1OC1OC(CO)C(O)C(O)C1O` (stereo unspecified), the T/C was 106 % of control (endpoint: median survival time, dose: 3.0 mg/kg/injection, schedule: Q01DX011 (ip), vehicle: saline, higher = longer survival); 110 % of control (endpoint: median survival time, dose: 6.0 mg/kg/injection, schedule: Q01DX011 (ip), vehicle: saline, higher = longer survival); 102 % of control (endpoint: median survival time, dose: 12.0 mg/kg/injection, schedule: Q01DX011 (ip), vehicle: saline, higher = longer survival); 104 % of control (endpoint: median survival time, dose: 24.0 mg/kg/injection, schedule: Q01DX011 (ip), vehicle: saline, higher = longer survival); 102 % of control (endpoint: median survival time, dose: 48.0 mg/kg/injection, schedule: Q01DX011 (ip), vehicle: saline, higher = longer survival).
